Laboratory results as given in BigSolDB 2.1.

Nc1ccccc1N
solubility (mole fraction)
Conditions | in acetonitrile | in ethanol | in methanol | in water
283.15 K | 0.0558 | 0.0139 | 0.0516 | 0.00447
285.65 K | 0.0595 | 0.0144 | 0.0533 | 0.00467
288.15 K | 0.0643 | 0.0148 | 0.0554 | 0.00495
290.65 K | 0.0685 | 0.0154 | 0.0572 | 0.00517
293.15 K | 0.0752 | 0.016 | 0.0596 | 0.00545
295.65 K | 0.0795 | 0.0165 | 0.0613 | 0.00573
298.15 K | 0.0858 | 0.0172 | 0.0637 | 0.00608
300.65 K | 0.0916 | 0.0177 | 0.0658 | 0.0064
303.15 K | 0.0987 | 0.0184 | 0.0685 | 0.00678
305.65 K | 0.104 | 0.019 | 0.0708 | 0.00717
308.15 K | 0.113 | 0.0199 | 0.0732 | 0.00762
310.65 K | 0.12 | 0.0205 | 0.0758 | 0.00803
313.15 K | 0.128 | 0.0213 | 0.0795 | 0.00855
315.65 K | 0.135 | 0.0221 | 0.0828 | 0.00923
318.15 K | 0.143 | 0.0233 | 0.0868 | 0.0102
